In patent US12678498B2, “FGFR/PD-1 combination therapy for the treatment of cancer” (ASTEX THERAPEUTICS LTD, priority 2015, dated 2026):

Key:
[1] = test system: peripheral blood mononuclear cells (PBMCs) from normal donors; experiment: Immune cell viability of PBMCs by CellTiter-Glo; format: cell-based; conditions: increasing concentrations up to 1 μM, days 1, 2, 5 and 6
Experimental: To determine the effects of JNJ427564493 on immune cell viability in vitro, peripheral blood mononuclear cells (PBMCs) from normal donors were stimulated with anti-CD3 antibodies to activate T cells, in the presence of increasing concentrations of JNJ42756493. Unstimulated PBMCs were also included to determine if JNJ42756493 affected unactivated immune populations. Cell viability was assessed at four different time points, over 6 days.

[2] = test system: PBMCs from CMV-reactive donors stimulated with CMV antigen; experiment: Cytomegalovirus antigen assay (CMV), IFN-γ in supernatant by MSD; format: cell-based; conditions: JNJ42756493 alone at 100, 1 or 0.01 nM; 6 days after treatment
Experimental: FIG. 5 illustrates the effect of JNJ42756493 on IFN-γ levels induced by anti-PD-1 antibodies in a Cytomegalovirus antigen assay (CMV) Assay. Peripheral blood mononuclear cells (PMBCs) were stimulated with CMV antigen and treated with anti-PD-1 antibodies (concentration left to right—30, 10, 3.33, 1.11, 0.37, 0.12 nM) as indicated. JNJ42756493 was added at 100, 1, or 0.01 nM alone (concentrations left to right), together with anti-PD-1 antibodies (100, 1, or 0.01 nM JNJ42756493 together with 30, 10, 3.33, 1.11, 0.37, or 0.12 nM of anti-PD-1 antibody), or in the presence of isotype control (IC). 6 days after treatment, IFN-γ levels in the supernatant were measured by MSD.
In the CMV assay, PBMCs from CMV-reactive donors were stimulated by the addition of CMV antigen. CMV-reactive T cells are active, expand and secrete pro-inflammatory cytokines such as IFN-γ. […] In contrast, JNJ42756493 alone had no impact on cytokine levels (FIG. 5, JNJ-493 alone).

In the case of `COc1cc(OC)cc(N(CCNC(C)C)c2ccc3ncc(-c4cnn(C)c4)nc3c2)c1` [JNJ42756493, N-(3,5-dimethoxyphenyl)-N′-(1-methylethyl)-N-[3-(1-methyl-1H-pyrazol-4-yl)quinoxalin-6-yl]ethane-1,2-diamine], the “cell viability (luminescence signal)” value ([1]; PBMCs stimulated with anti-CD3 antibodies) is reported as “remained constant”, the “cell viability (luminescence signal)” value ([1]; unstimulated PBMCs) is reported as “remained constant” and the “cytokine (IFN-γ) levels” value [2] is reported as “no impact”.
